Values of other authors as cited in US12251380B2, “Depot systems comprising cariprazine or salts thereof” (Mapi Pharma Ltd., priority 2022, dated 2025).
Read-outs that look alike come from different tables or passages of the source.

Conditions: schizophrenic patients

Compound | elimination half-life (oral Cariprazine) [days] | elimination half-life (active metabolite after oral Cariprazine)
CN(C)C(=O)N[C@H]1CC[C@H](CCN2CCN(c3cccc(Cl)c3Cl)CC2)CC1 [Cariprazine, trans-N-{4-[2-[4-(2,3-dichlorophenyl)piperazine-1-yl]ethyl]cyclohexyl}-N′,N′-dimethylurea] | 2 to 5 | 
NC(=O)NC1CCC(CCN2CCN(c3cccc(Cl)c3Cl)CC2)CC1 (centres unmarked) [didesmethyl Cariprazine] |  | 2-3 weeks
